Tested on: primary rat mixed cortical cells
Test: In vitro myelination assay (MBP positive myelin strands, fold myelin pixels above background)
Format: cell-based
Conditions: Rattus norvegicus, read-out: Fold myelin pixels above background relative to baseline of no added compound; for fold induction at 1 µM: 1.0 μM compound; for fold induction at 10 µM: 10.0 μM compound
Summary of the method: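 Fourteen-day treatment of primary P1 rat mixed cortical cultures, re-dosed at days 6 and 10, at 1.0 μM and 10.0 μM. MBP immunofluorescence was imaged at 10× and myelin strands quantified by software, normalised to untreated wells as fold above background.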

Row | SMILES | fold induction at 1 µM | fold induction at 10 µM
1 | Cc1cc(NCC(=O)N2CCCC2)cc(Nc2ncn(-c3cc(F)cc(F)c3)n2)c1 [Compound 993, 2-[3-[[1-(3,5-difluorophenyl)-1,2,4-triazol-3-yl]amino]-5-methyl-anilino]-1-pyrrolidin-1-yl-ethanone] | 1 to 10 | 10 to 100
2 | [2H]C1([2H])N(c2cc(C)cc(Nc3ncn(-c4cc(F)cc(F)c4)n3)c2)C([2H])([2H])C([2H])([2H])N(C2CCC2)C1([2H])[2H] [Compound 994, N-[3-(4-cyclobutyl-2,2,3,3,5,5,6,6-octadeuterio-piperazin-1-yl)-5-methyl-phenyl]-1-(3,5-difluorophenyl)-1,2,4-triazol-3-amine] | 1 to 10 | 1 to 10
3 | Cc1cc(Nc2ncn(-c3cc(F)cc(F)c3)n2)cc(N2CCN(CC(C)O)CC2)c1 (stereo not shown) [Compound 995, 1-[4-[3-[[1-(3,5-difluorophenyl)-1,2,4-triazol-3-yl]amino]-5-methyl-phenyl]piperazin-1-yl]propan-2-ol] | 10 to 100 | ≤ 1
4 | CCN1CC2CC1CN2c1cc(C)cc(Nc2ncn(-c3cc(F)cc(F)c3)n2)c1 (stereo not shown) [Compound 996, 1-(3,5-difluorophenyl)-N-[3-(5-ethyl-2,5-diazabicyclo[2.2.1]heptan-2-yl)-5-methyl-phenyl]-1,2,4-triazol-3-amine] | 1 to 10 | ≤ 1
5 | [2H]C1(N2C([2H])([2H])C([2H])([2H])N(c3cc(C)cc(Nc4ncn(-c5cc(F)cc(F)c5)n4)c3)C([2H])([2H])C2([2H])[2H])COC1 [Compound 997, 1-(3,5-difluorophenyl)-N-[3-methyl-5-[2,2,3,3,5,5,6,6-octadeuterio-4-(3-deuteriooxetan-3-yl)piperazin-1-yl]phenyl]-1,2,4-triazol-3-amine] | 100 to 1000 | ≤ 1
6 | Cc1cc(Nc2ncn(-c3ccc(F)c(F)c3)n2)c(F)c(N2CCN(C3COC3)CC2)c1 [Compound 998, 1-(3,4-difluorophenyl)-N-[2-fluoro-5-methyl-3-[4-(oxetan-3-yl)piperazin-1-yl]phenyl]-1,2,4-triazol-3-amine] | 10 to 100 | 1 to 10
7 | Cc1cc(Nc2ncn(-c3cc(F)cc(F)c3)n2)nc(OC2CCCOC2)c1 (stereo not shown) [Compound 999, N-[1-(3,5-difluorophenyl)-1,2,4-triazol-3-yl]-4-methyl-6-tetrahydropyran-3-yloxy-pyridin-2-amine] | 1 to 10 | ≤ 1
8 | COCCCCN1CCN(c2cc(C)cc(Nc3ncn(-c4cc(F)cc(F)c4)n3)c2)CC1 [Compound 1001, 1-(3,5-difluorophenyl)-N-[3-[4-(4-methoxybutyl)piperazin-1-yl]-5-methyl-phenyl]-1,2,4-triazol-3-amine] | 10 to 100 | 1 to 10
9 | Cc1cc(NCCN2CC(C)OCC2C)cc(Nc2ncn(-c3cc(F)cc(F)c3)n2)c1 (stereo not shown) [Compound 1003, N1-[1-(3,5-difluorophenyl)-1,2,4-triazol-3-yl]-N3-[2-(2,5-dimethylmorpholin-4-yl)ethyl]-5-methyl-benzene-1,3-diamine] | 10 to 100 | ≤ 1
10 | CC1=NOC(CNc2cc(C)cc(Nc3ncn(-c4cc(F)cc(F)c4)n3)c2)C1 (stereo not shown) [Compound 1004, N1-[1-(3,5-difluorophenyl)-1,2,4-triazol-3-yl]-5-methyl-N3-[(3-methyl-4,5-dihydroisoxazol-5-yl)methyl]benzene-1,3-diamine] | 1 to 10 | 1 to 10
11 | Cc1cc(Nc2ncn(-c3cc(F)cc(F)c3)n2)cc(N2CCN(CCOC(C)C)CC2)c1 [Compound 1005, 1-(3,5-difluorophenyl)-N-[3-[4-(2-isopropoxyethyl)piperazin-1-yl]-5-methyl-phenyl]-1,2,4-triazol-3-amine] | 1 to 10 | ≤ 1
12 | COC1CCN(c2cc(C)cc(Nc3ncn(-c4cc(F)cc(F)c4)n3)c2)CC1 [Compound 1006, 1-(3,5-difluorophenyl)-N-[3-(4-methoxy-1-piperidyl)-5-methyl-phenyl]-1,2,4-triazol-3-amine] | 10 to 100 | 1 to 10
13 | Cc1cc(Nc2ncn(-c3cc(F)cc(F)c3)n2)c(F)c(NC2CCCC2N2CCOCC2)c1 (stereo not shown) [Compound 1007, N3-[1-(3,5-difluorophenyl)-1,2,4-triazol-3-yl]-2-fluoro-5-methyl-N1-(2-morpholinocyclopentyl)benzene-1,3-diamine] | 1 to 10 | 10 to 100
14 | Cc1cc(NCCOC2CCC2)cc(Nc2ncn(-c3cc(F)cc(F)c3)n2)c1 [Compound 1008, N3-[2-(cyclobutoxy)ethyl]-N1-[1-(3,5-difluorophenyl)-1,2,4-triazol-3-yl]-5-methyl-benzene-1,3-diamine] | 10 to 100 | 1 to 10
15 | Cc1cc(Nc2ncn(-c3cc(F)cc(F)c3)n2)cc(N2CC(O)C(N3CCCC3)C2)c1 (stereo not shown) [Compound 1010, 1-[3-[[1-(3,5-difluorophenyl)-1,2,4-triazol-3-yl]amino]-5-methyl-phenyl]-4-pyrrolidin-1-yl-pyrrolidin-3-ol] | 1 to 10 | ≤ 1
16 | COCCN1CCN(c2cc(C)cc(Nc3ncn(-c4cc(F)cc(F)c4)n3)c2)CC1C (stereo not shown) [Compound 1011, 1-(3,5-difluorophenyl)-N-[3-[4-(2-methoxyethyl)-3-methyl-piperazin-1-yl]-5-methyl-phenyl]-1,2,4-triazol-3-amine] | 10 to 100 | ≤ 1
17 | Cc1cc(Nc2ncn(-c3cc(F)cc(F)c3)n2)cc(N2CCCC2CN2CCOCC2)c1 (stereo not shown) [Compound 1012, 1-(3,5-difluorophenyl)-N-[3-methyl-5-[2-(morpholinomethyl)pyrrolidin-1-yl]phenyl]-1,2,4-triazol-3-amine] | 1 to 10 | ≤ 1
18 | Cc1cc(Nc2ncn(-c3cc(F)cc(F)c3)n2)cc(NC2CCN(C3CCOCC3)CC2)c1 [Compound 1013, N3-[1-(3,5-difluorophenyl)-1,2,4-triazol-3-yl]-5-methyl-N1-(1-tetrahydropyran-4-yl-4-piperidyl)benzene-1,3-diamine] | 10 to 100 | ≤ 1
19 | Cc1cc(Nc2ncn(-c3cc(F)cc(F)c3)n2)cc(N2CCC(OC3CCOC3)CC2)c1 (stereo not shown) [Compound 1014, 1-(3,5-difluorophenyl)-N-[3-methyl-5-(4-tetrahydrofuran-3-yloxy-1-piperidyl)phenyl]-1,2,4-triazol-3-amine] | 1 to 10 | 1 to 10
20 | Cc1cc(Nc2ncn(-c3cc(F)cc(F)c3)n2)cc(N2CCC(N(C)CCO)CC2)c1 [Compound 1015, 2-[[1-[3-[[1-(3,5-difluorophenyl)-1,2,4-triazol-3-yl]amino]-5-methyl-phenyl]-4-piperidyl]-methyl-amino]ethanol] | ≤ 1 | ≤ 1
21 | Cc1cc(NC2(C)COC2)cc(Nc2ncn(-c3cc(F)cc(F)c3)n2)c1F [Compound 1016, N3-[1-(3,5-difluorophenyl)-1,2,4-triazol-3-yl]-4-fluoro-5-methyl-N1-(3-methyloxetan-3-yl)benzene-1,3-diamine] | 10 to 100 | 1 to 10
22 | CCN(CC)CC1CN(c2cc(C)cc(Nc3ncn(-c4cc(F)cc(F)c4)n3)c2)CCO1 (stereo not shown) [Compound 1017, N-[3-[2-(diethylaminomethyl)morpholin-4-yl]-5-methyl-phenyl]-1-(3,5-difluorophenyl)-1,2,4-triazol-3-amine] | 10 to 100 | ≤ 1
23 | Cc1cc(Nc2ncn(-c3cc(F)cc(F)c3)n2)cc(N2CCOC(CN(C)C)C2)c1 (stereo not shown) [Compound 1018, 1-(3,5-difluorophenyl)-N-[3-[2-[(dimethylamino)methyl]morpholin-4-yl]-5-methyl-phenyl]-1,2,4-triazol-3-amine] | 10 to 100 | ≤ 1
24 | Cc1cc(Nc2ncn(-c3cc(F)cc(F)c3)n2)cc(N2CCC(OC(C)C)CC2)c1 [Compound 1019, 1-(3,5-difluorophenyl)-N-[3-(4-isopropoxy-1-piperidyl)-5-methyl-phenyl]-1,2,4-triazol-3-amine] | 1 to 10 | 10 to 100
25 | Cc1cc(NCC2(N3CCCC3)COC2)cc(Nc2ncn(-c3cc(F)cc(F)c3)n2)c1 [Compound 1020, N1-[1-(3,5-difluorophenyl)-1,2,4-triazol-3-yl]-5-methyl-N3-[(3-pyrrolidin-1-yloxetan-3-yl)methyl]benzene-1,3-diamine] | 10 to 100 | 1 to 10
26 | Cc1cc(NC2CCOCC2)cc(Nc2ncn(-c3cc(F)cc(F)c3)n2)c1F [Compound 1021, N3-[1-(3,5-difluorophenyl)-1,2,4-triazol-3-yl]-4-fluoro-5-methyl-N1-tetrahydropyran-4-yl-benzene-1,3-diamine] | 1 to 10 | ≤ 1
27 | Cc1cc(Nc2ncn(-c3cccnc3)n2)c(F)c(N2CCN(C3COC3)CC2)c1 [Compound 1022, N-[2-fluoro-5-methyl-3-[4-(oxetan-3-yl)piperazin-1-yl]phenyl]-1-(3-pyridyl)-1,2,4-triazol-3-amine] | 1 to 10 | 10 to 100
28 | Cc1cc(Nc2ncn(-c3cc(F)cc(F)c3)n2)cc(N2CCC(N3CCOC(C)C3)CC2)c1 (stereo not shown) [Compound 1023, 1-(3,5-difluorophenyl)-N-[3-methyl-5-[4-(2-methylmorpholin-4-yl)-1-piperidyl]phenyl]-1,2,4-triazol-3-amine] | 1 to 10 | 10 to 100
29 | Cc1cc(Nc2ncn(-c3cc(F)cc(F)c3)n2)cc(N2CCN(CC(C)(C)O)CC2C)c1 (stereo not shown) [Compound 1024, 1-[4-[3-[[1-(3,5-difluorophenyl)-1,2,4-triazol-3-yl]amino]-5-methyl-phenyl]-3-methyl-piperazin-1-yl]-2-methyl-propan-2-ol] | 10 to 100 | ≤ 1

— patent publication US10766869B2, “Triazoles for the treatment of demyelinating dieases” (Vertex Pharmaceuticals Incorporated, priority 2015, dated 2020)
